The values that follow are results of earlier work, collected in patent US10821087B2, “Stabilized injectable emulsion of Propofol and Ketamine” (NEON LABORATORIES LIMITED, priority 2015, dated 2020).

The data set has as its system Propofol induced pain. The following applies: 100 μg/kg Ketamine administered just before Propofol.

Each structure is given as a SMILES string.

Consider `CNC1(c2ccccc2Cl)CCCCC1=O` (centres unmarked) [Ketamine], for which the adverse hemodynamic effects entry is “without significant adverse hemodynamic effects”; the “incidence and intensity of Propofol induced pain” value was “reduce the incidence and intensity of Propofol induced pain”.
